Experimental data as given in the NIST ThermoML archive (doi:10.1016/j.jct.2019.01.028).

What was measured:
[1] = xn = mol fraction of the nth substance listed; conditions: transient hot wire, x1 = 0.5
[2] = transient hot wire

CC(F)(F)F [1,1,1-trifluoroethane] + C=C(F)C(F)(F)F
[1]
Conditions	thermal conductivity [W/m/K]
265.44 K, 1220 kPa, Liquid	0.0777
284.11 K, 2050 kPa, Liquid	0.0715
285.09 K, 1060 kPa, Liquid	0.0696
307.25 K, 2030 kPa, Liquid	0.0625
307.34 K, 3050 kPa, Liquid	0.0644
324.39 K, 3040 kPa, Liquid	0.0585
334.34 K, 1080 kPa, Gas	0.01836
354.13 K, 1170 kPa, Gas	0.02059
354.52 K, 1730 kPa, Gas	0.02034
373.86 K, 2750 kPa, Gas	0.02379
374.86 K, 1900 kPa, Gas	0.02277
393.8 K, 3090 kPa, Gas	0.02622

[Ar] [argon]
[2], Gas
Conditions	thermal conductivity [W/m/K]
311.92 K, 20370 kPa	0.02811
312.12 K, 24160 kPa	0.03024
312.12 K, 31080 kPa	0.0342
312.18 K, 27390 kPa	0.03235
312.2 K, 25850 kPa	0.03134
312.35 K, 27380 kPa	0.0324
312.59 K, 17170 kPa	0.02649
312.61 K, 13790 kPa	0.02465
312.73 K, 10320 kPa	0.02285

FC(F)C(F)(F)F [pentafluoroethane] + C=C(F)C(F)(F)F
[1]
Conditions	thermal conductivity [W/m/K]
259.84 K, 1110 kPa, Liquid	0.0717
284.9 K, 1150 kPa, Liquid	0.0674
285.15 K, 1880 kPa, Liquid	0.0686
304.07 K, 2060 kPa, Liquid	0.0644
305.21 K, 3030 kPa, Liquid	0.0595
324.75 K, 3030 kPa, Liquid	0.0529
334.55 K, 1340 kPa, Gas	0.01759
354.3 K, 1450 kPa, Gas	0.01925
354.63 K, 1840 kPa, Gas	0.02057
374.24 K, 2810 kPa, Gas	0.02329
374.46 K, 2040 kPa, Gas	0.02202
394.23 K, 3100 kPa, Gas	0.02512

FC(F)C(F)(F)F [pentafluoroethane] + CC(F)F
[1]
Conditions	thermal conductivity [W/m/K]
264.9 K, 1000 kPa, Liquid	0.0845
273.97 K, 2140 kPa, Liquid	0.0856
284.7 K, 1000 kPa, Liquid	0.0799
294.68 K, 3030 kPa, Liquid	0.0789
294.83 K, 2010 kPa, Liquid	0.0774
314.1 K, 3080 kPa, Liquid	0.0646
335.9 K, 1110 kPa, Gas	0.0178
353.81 K, 1710 kPa, Gas	0.01953
353.92 K, 1220 kPa, Gas	0.01934
374.25 K, 1920 kPa, Gas	0.0231
374.33 K, 2760 kPa, Gas	0.0237
393.94 K, 3110 kPa, Gas	0.02557

Cc1ccccc1 [toluene]
[2], 100 kPa, Liquid
Conditions	thermal conductivity [W/m/K]
272.64 K	0.1372
273.45 K	0.1366
295.01 K	0.1308
295.07 K	0.1307
316.82 K	0.1253
318.84 K	0.1243
321.21 K	0.1237
335.27 K	0.12
337.36 K	0.1192
347 K	0.1175
